Experimental data: paper PMC11905058, “Novel Leech Antimicrobial Peptides, Hirunipins: Real‐Time 3D Monitoring of Antimicrobial and Antibiofilm Mechanisms Using Optical Diffraction Tomography” (Advanced Science, 2025)
Like-named read-outs stand apart in the source and are kept apart here. Residues, ends and D or L forms follow the SMILES beside them. No end group written: not given here.

Tests used:
Format in all cases: cell-based
[1] = tested on: Escherichia coli [KCTC 1682]
Experimental: (§1) The MICs of the peptides were measured by the Clinical and Laboratory Standards Institute (CLSI) broth microdilution method, as outlined in a previous study.^[ [26], [27] ^]
(§2) Minimal Inhibitory Concentrations (MICs): Bacteria were grown to mid-logarithmic phase and diluted in Mueller-Hinton broth (MHB) (Difco). The bacterial suspension (1×10^6 CFU/well) was added to a 96-well microtiter plate along with a two-fold serial dilution of samples. The plate was incubated at 37 °C for 24 hours and the bacterial growth inhibition was assessed by measuring the optical density using an ELISA plate reader. The minimum inhibitory concentration (MIC) was defined as the lowest concentration of samples that prevented visible bacterial growth.

[2] = tested on: Pseudomonas aeruginosa [KCTC 1637]
Experimental: as §1, §2

[3] = tested on: Staphylococcus epidermidis [KCTC 1917]
Experimental: as §1, §2

[4] = tested on: Staphylococcus aureus [KCTC1621]
Experimental: as §1, §2

[5] = CLSI broth microdilution in MHB, 1×10^6 CFU/well, 37 °C, 24 h, optical density

CC(C)C[C@H](NC(=O)[C@H](CS)NC(=O)[C@@H](NC(=O)CNC(=O)[C@H](CC(=O)O)NC(=O)[C@H](CCC(=O)O)NC(=O)[C@H](CCCCN)NC(=O)[C@H](CCCCN)NC(=O)[C@H](CS)NC(=O)[C@@H](NC(=O)[C@H](CCCNC(=N)N)NC(=O)[C@H](CCCNC(=N)N)NC(=O)[C@@H](N)CCCNC(=N)N)[C@@H](C)O)[C@@H](C)O)C(=O)NCC(=O)N[C@@H](CCCNC(=N)N)C(=O)N[C@@H](CCCCN)C(=O)N[C@H](C(=O)N[C@@H](CCC(N)=O)C(=O)N[C@@H](Cc1ccc(O)cc1)C(=O)N[C@@H](CCCCN)C(=O)N[C@@H](CCCCN)C(=O)N[C@@H](Cc1ccc(O)cc1)C(=O)N[C@@H](CC(C)C)C(=O)N[C@@H](CCC(N)=O)C(=O)N[C@@H](CCCCN)C(=O)N[C@@H](CCCCN)C(N)=O)C(C)C [LP3] (H-RRRTCKKEDGTCLGRKVQYKKYLQKK-NH2; N-terminus and C-terminus assumed)
>128 µg/mL: Minimum inhibitory concentration (MIC), Escherichia coli [KCTC 1682] ([1]; KCTC 1682, 24 h) | Minimum inhibitory concentration (MIC), Pseudomonas aeruginosa [KCTC 1637] ([2]; KCTC 1637, 24 h) | Minimum inhibitory concentration (MIC), Staphylococcus epidermidis [KCTC 1917] ([3]; KCTC 1917, 24 h) | Minimum inhibitory concentration (MIC), Staphylococcus aureus [KCTC1621] ([4]; KCTC1621, 24 h)

CC(C)C[C@H](NC(=O)[C@H](Cc1ccc(O)cc1)NC(=O)[C@H](CCCCN)NC(=O)[C@H](CCCNC(=N)N)NC(=O)[C@H](CCCNC(=N)N)NC(=O)[C@H](CCC(N)=O)NC(=O)[C@@H](NC(=O)[C@H](CC(N)=O)NC(=O)[C@H](CCCNC(=N)N)NC(=O)CNC(=O)[C@@H](NC(=O)[C@H](CS)NC(=O)[C@@H]1CCCN1C(=O)[C@H](CCCCN)NC(=O)[C@H](CO)NC(=O)[C@H](CC(N)=O)NC(=O)[C@H](CC(C)C)NC(=O)[C@H](CCCCN)NC(=O)[C@H](CS)NC(=O)[C@H](CCC(N)=O)NC(=O)[C@H](CCCNC(=N)N)NC(=O)[C@H](CCC(=O)O)NC(=O)[C@H](CCCNC(=N)N)NC(=O)[C@@H](NC(=O)[C@H](Cc1c[nH]c2ccccc12)NC(=O)[C@H](Cc1ccc(O)cc1)NC(=O)CNC(=O)[C@@H](NC(=O)[C@@H](NC(=O)[C@H](CC(=O)O)NC(=O)[C@@H](N)CCCCN)C(C)C)[C@@H](C)O)C(C)C)C(C)C)[C@@H](C)O)C(=O)N[C@@H](CC(N)=O)C(=O)N[C@@H](CCCCN)C(N)=O [LP4] (H-KDVTGYWVRERQCKLNSKPCVGRNTQRRKYLNK-NH2; N-terminus and C-terminus assumed)
>128 µg/mL: Minimum inhibitory concentration (MIC), Escherichia coli [KCTC 1682] ([1]; KCTC 1682, 24 h) | Minimum inhibitory concentration (MIC), Pseudomonas aeruginosa [KCTC 1637] ([2]; KCTC 1637, 24 h) | Minimum inhibitory concentration (MIC), Staphylococcus epidermidis [KCTC 1917] ([3]; KCTC 1917, 24 h) | Minimum inhibitory concentration (MIC), Staphylococcus aureus [KCTC1621] ([4]; KCTC1621, 24 h)

CC[C@H](C)[C@H](NC(=O)[C@H](CO)NC(=O)[C@H](CCCNC(=N)N)NC(=O)[C@H](C)N)C(=O)N[C@@H](CCCCN)C(=O)N[C@@H](CCCCN)C(=O)N[C@H](C(=O)N[C@H](C(=O)N[C@@H](Cc1ccccc1)C(=O)N[C@@H](CO)C(=O)N[C@@H](CO)C(=O)N[C@@H](CO)C(=O)N[C@@H](CO)C(=O)N[C@@H](CCCNC(=N)N)C(=O)N[C@H](C(=O)N[C@@H](CS)C(=O)N1CCC[C@H]1C(=O)N1CCC[C@H]1C(=O)N[C@@H](CC(C)C)C(=O)N[C@@H](CCCCN)C(=O)N[C@@H](CCSC)C(=O)N[C@@H](CC(C)C)C(=O)N[C@@H](CCCCN)C(=O)N[C@@H](CC(C)C)C(=O)N[C@@H](CCCNC(=N)N)C(=O)N1CCC[C@H]1C(=O)N[C@@H](CS)C(=O)N[C@@H](Cc1ccccc1)C(=O)N[C@@H](CCCCN)C(=O)N[C@@H](CCCCN)C(=O)N[C@H](C(=O)N1CCC[C@H]1C(=O)N[C@@H](CCCCN)C(=O)N[C@@H](CC(C)C)C(=O)N[C@@H](CC(=O)O)C(=O)NCC(=O)N[C@@H](CCC(N)=O)C(=O)O)C(C)C)C(C)C)[C@@H](C)CC)C(C)C [LP15] (H-ARSIKKVIFSSSSRVCPPLKMLKLRPCFKKVPKLDGQ-OH; N-terminus and C-terminus assumed)
>128 µg/mL: Minimum inhibitory concentration (MIC), Escherichia coli [KCTC 1682] ([1]; KCTC 1682, 24 h) | Minimum inhibitory concentration (MIC), Pseudomonas aeruginosa [KCTC 1637] ([2]; KCTC 1637, 24 h) | Minimum inhibitory concentration (MIC), Staphylococcus epidermidis [KCTC 1917] ([3]; KCTC 1917, 24 h) | Minimum inhibitory concentration (MIC), Staphylococcus aureus [KCTC1621] ([4]; KCTC1621, 24 h)

CC[C@H](C)[C@H](NC(=O)[C@@H]1CCCN1C(=O)[C@H](Cc1ccccc1)NC(=O)[C@H](CCC(N)=O)NC(=O)[C@H](CO)NC(=O)[C@H](CCCNC(=N)N)NC(=O)[C@@H](N)Cc1ccccc1)C(=O)N[C@@H](CS)C(=O)N[C@@H](CCCCN)C(=O)N[C@@H](CC(N)=O)C(=O)N[C@@H](CC(C)C)C(=O)N[C@H](C(=O)N[C@@H](CC(N)=O)C(=O)N[C@@H](Cc1c[nH]cn1)C(=O)N[C@H](C(=O)N[C@@H](CCCCN)C(=O)N[C@@H](Cc1ccccc1)C(=O)N[C@H](C(=O)N[C@@H](CS)C(=O)N[C@@H](CCC(N)=O)C(=O)N[C@@H](CCCCN)C(=O)N[C@@H](CCCCN)C(=O)N1CCC[C@H]1C(=O)N[C@@H](CC(C)C)C(=O)N[C@@H](CO)C(=O)N[C@@H](CCCCN)C(=O)N[C@@H](CC(C)C)C(=O)N[C@@H](CCSC)C(=O)N[C@@H](CCCCN)C(=O)N[C@@H](CS)C(=O)N[C@@H](CCCCN)C(=O)N[C@@H](CCCCN)C(=O)N[C@@H](C)C(=O)N[C@@H](CC(C)C)C(=O)N[C@@H](CC(=O)O)C(=O)N[C@@H](CCCNC(=N)N)C(=O)O)C(C)C)[C@@H](C)O)C(C)C [LP16] (H-FRSQFPICKNLVNHTKFVCQKKPLSKLMKCKKALDR-OH)
>128 µg/mL: Minimum inhibitory concentration (MIC), Escherichia coli [KCTC 1682] ([1]; KCTC 1682, 24 h) | Minimum inhibitory concentration (MIC), Pseudomonas aeruginosa [KCTC 1637] ([2]; KCTC 1637, 24 h) | Minimum inhibitory concentration (MIC), Staphylococcus epidermidis [KCTC 1917] ([3]; KCTC 1917, 24 h) | Minimum inhibitory concentration (MIC), Staphylococcus aureus [KCTC1621] ([4]; KCTC1621, 24 h)

FGQKVNCILNFICYKYLRI LV [LP2, putative AMP predicted from the Hirudo nipponia transcriptome]
>128 µg/mL: Minimum inhibitory concentration (MIC), Escherichia coli [KCTC 1682] [1, 5] | Minimum inhibitory concentration (MIC), Pseudomonas aeruginosa [KCTC 1637] [2, 5] | Minimum inhibitory concentration (MIC), Staphylococcus epidermidis [KCTC 1917] [3, 5] | Minimum inhibitory concentration (MIC), Staphylococcus aureus [KCTC1621] [4, 5]

IIIIKMHKTRKEKTQSILSAPVGLLTTL [LP7]
>128 µg/mL: Minimum inhibitory concentration (MIC), Escherichia coli [KCTC 1682] ([1]; KCTC 1682, 24 h) | Minimum inhibitory concentration (MIC), Pseudomonas aeruginosa [KCTC 1637] ([2]; KCTC 1637, 24 h) | Minimum inhibitory concentration (MIC), Staphylococcus epidermidis [KCTC 1917] ([3]; KCTC 1917, 24 h) | Minimum inhibitory concentration (MIC), Staphylococcus aureus [KCTC1621] ([4]; KCTC1621, 24 h)

KKLLKKLEKISKKKKKDKKRGRGSPMTSYAILYDGA [LP10]
>128 µg/mL: Minimum inhibitory concentration (MIC), Escherichia coli [KCTC 1682] ([1]; KCTC 1682, 24 h) | Minimum inhibitory concentration (MIC), Pseudomonas aeruginosa [KCTC 1637] ([2]; KCTC 1637, 24 h) | Minimum inhibitory concentration (MIC), Staphylococcus epidermidis [KCTC 1917] ([3]; KCTC 1917, 24 h) | Minimum inhibitory concentration (MIC), Staphylococcus aureus [KCTC1621] ([4]; KCTC1621, 24 h)

KLTPKPAKKVKKVVKF [LP1]
>128 µg/mL: Minimum inhibitory concentration (MIC), Escherichia coli [KCTC 1682] ([1]; KCTC 1682, 24 h) | Minimum inhibitory concentration (MIC), Pseudomonas aeruginosa [KCTC 1637] ([2]; KCTC 1637, 24 h) | Minimum inhibitory concentration (MIC), Staphylococcus epidermidis [KCTC 1917] ([3]; KCTC 1917, 24 h) | Minimum inhibitory concentration (MIC), Staphylococcus aureus [KCTC1621] ([4]; KCTC1621, 24 h)

LLAHVSKGFKLSMQKSKKPSLPIKT-NH2 [LP5]
>128 µg/mL: Minimum inhibitory concentration (MIC), Escherichia coli [KCTC 1682] ([1]; KCTC 1682, 24 h) | Minimum inhibitory concentration (MIC), Pseudomonas aeruginosa [KCTC 1637] ([2]; KCTC 1637, 24 h) | Minimum inhibitory concentration (MIC), Staphylococcus epidermidis [KCTC 1917] ([3]; KCTC 1917, 24 h) | Minimum inhibitory concentration (MIC), Staphylococcus aureus [KCTC1621] ([4]; KCTC1621, 24 h)

LNTPRPELSISQRLLIKNFILII-NH2 [LP14]
>128 µg/mL: Minimum inhibitory concentration (MIC), Escherichia coli [KCTC 1682] ([1]; KCTC 1682, 24 h) | Minimum inhibitory concentration (MIC), Pseudomonas aeruginosa [KCTC 1637] ([2]; KCTC 1637, 24 h) | Minimum inhibitory concentration (MIC), Staphylococcus epidermidis [KCTC 1917] ([3]; KCTC 1917, 24 h) | Minimum inhibitory concentration (MIC), Staphylococcus aureus [KCTC1621] ([4]; KCTC1621, 24 h)
